How the values were obtained:
Format in all cases: cell-based, human
PASMCs [1] = experiment: Proliferation of PASMCs (cell counting, BrdU incorporation, PCNA)
Excerpt: Pre-miRNA oligonucleotides (pre-miR-130a, pre-miR-204, pre-miR-424, and pre-miR-503 and negative control pre-miR-NC1 and premiR-NC2, Life Technologies), anti-miRNAs oligonucleotides (anti-miR-130a and anti-miR-NC, ThermoScientific), tiny LNA oligonucleotides (tiny-130: 5′-[…]-3′ (SEQ ID NO: 3), and tiny-NC 5′-[…]-3′ (SEQ ID NO: 51), Exiqon), siRNAs (PPARγ and scrambled control, Santa Cruz Biotechnology; HIF-1α, HIF-2α, and scrambled control, Life Technologies) were commercially purchased. PAECs and PASMCs were plated and transfected 24 h later at 70-80% confluence using pre-miRNA (5 nM), anti-miRNA (20 nM), tiny-LNA (20 nM) or siRNA (25 nM) with Lipofectamine 2000 reagent (Life Technologies), according to the manufacturers' instructions.
Exponentially growing cells were transfected, collected at the indicated times and counted.
(§1) Cells were lysed in RIPA buffer (Santa Cruz Biotechnology) and the protein concentration determined using a Bradford assay (Biorad). Protein lysate ([…]) were resolved by SDS-PAGE and transferred onto a PVDF membrane (Biorad). Membranes were blocked in 5% non-fat milk in TN buffer (50 mM Tris-HCl pH 7.4, 150 mM NaCl) and incubated in the presence of the primary and then secondary antibodies. After washing in TN buffer containing 0.1% Tween, immunoreactive bands were visualized with the ECL system (Amersham Biosciences). […] Primary antibodies for STAT3 (#9139) and P-STAT3 (Tyr-705; #9145) were purchased from Cell Signaling. Primary antibodies against actin (ab 3280), α-smooth-muscle-actin (ab 32575), CD31 (ab28364), and PCNA (ab 29) were obtained from Abcam. Appropriate secondary antibodies (anti-rabbit and anti-mouse) coupled to HRP were used (Santa Cruz Biotechnology).

PASMCs [2] = experiment: Caspase 3/7 assay, PASMCs
Description: Caspase 3,7 activity was quantified using the Caspase-Glo 3/7 Assay (Promega), according to manufacturer's instructions. Briefly, cells were plated in triplicate in 96-well plates and transfected with the appropriate oligonucleotide. Forty-eight hours after transfection, cells were cultured in the presence or absence of serum for twenty-four hours. Cells were then incubated for 1 h with the caspase substrates, and luminescence was quantified.

endothelin-1 = experiment: Quantification of endothelin-1 by ELISA in conditioned media of PAECs; conditions: mimic: normoxia and hypoxia, inhibitors: hypoxia 0.2% O2
Description: Twenty-four hours after transfection PAECs were washed in PBS, and medium was replaced by media without serum. Twenty-four hour later conditioned media from PAEC transfected as indicated were collected and endothelin-1 was measured by ELISA kit (Enzo biosciences) according to the manufacturer's protocol. Human plasma sample (see below) and mouse plasma were also tested for endothelin-1 level by ELISA.

STAT3 = STAT3 phosphorylation in PASMCs (conditioned media from PAECs or endothelin-1; immunoblot); conditions: conditioned media from transfected PAECs (mimic: normoxic, tiny-LNA: hypoxic conditioning)
Description: (FIG. 40A) A schematic diagram of co-culture experiments: conditioned media from transfected PAECs (miRNA, anti-miRNA, tiny-LNA or siRNA under normoxic or hypoxic conditions) were filtered and applied onto naïve PASMCs cultured in matrigel. At specific times, PASMCs or PASMC-matrigel cultures were arrested and analyzed for STAT3 activation (phosphorylation) or contraction, respectively.
50000 PASMC were embedded in 100 ul of matrix gel as previous described (Gagiolli et al) and plated into well of a 96 well plate. After 1 h at 37° C., these matrices were overlaid with 100 ul of conditioned PAECs serum-free medium (transfected with siRNA, miRNA or anti-miRNA and supplemented with Ambriesentan 10 uM). Every 12 h, medium was changed and at day 4 the gels were photographed and the relative diameter of the well and the gel were measured using ImageJ. The percentage contraction was calculated using the formula 100*(well diameter−gel diamter)/well diameter. For the co-culture experiment, conditioned media from PAEC transfected as indicated were applied on PASMCs or Fibroblast previously starved (24 h). Cells were collected at different time and analyzed by western blotting.
as §1, with “was” for “α-smooth-muscle-actin (ab 32575), CD31 (ab28364), and PCNA (ab 29) were”

PAAFs = experiment: ECM remodeling experiment (naïve PAAFs plated on remodeled ECM)
Description: After the different treatment cells were fixed with PBS/PFA 4% for 10 min and permeabilized with PBS/Triton 100×0.1% for 10 min. Then cells were incubated with anti-YAP1 (#4912; 1/100; Cell signaling) at 4° C. overnight. Secondary antibodies coupled with Alexa-594 (Life Technologies) were used at 1:500. Nuclei were counterstained with DAPI (Sigma).
Following treatment, PAAFs were plated atop soft matrices (see below) in normal growth medium supplemented with 0.5% FBS. After three days, 10 ug/mL of puromycin was added to the growth medium for 48 hours to detach the cells from the matrix. Matrices were washed 3 times (PBS). Naïve PAAFs were then plated on top of these matrices supplemented with normal growth medium 0.5% FBS or harvested for assessment of collagen crosslinking (Picrosirius Red stain). Sixteen hours later, cells were harvested for immunofluorescence experiments or RNA extraction.
Picrosirius Red stain was achieved through the use of 5 μm paraffin sections stained with 0.1% Picrosirius Red (Direct Red80, Sigma-Aldrich) and counterstained with Weigert's hematoxylin to reveal fibrillar collagen. The sections were then serially imaged using with an analyzer and polarizer oriented parallel and orthogonal to each other. Microscope conditions (lamp brightness, condenser opening, objective, zoom, exposure time, and gain parameters) were constant throughout the imaging of all samples. A minimal threshold was set on appropriate control sections for each experiment in which only the light passing through the orthogonally-oriented polarizers representing fibrous structures (i.e., excluding residual light from the black background) was included. The threshold was maintained for all images across all conditions within each experiment. The area of the transferred regions that was covered by the thresholded light was calculated and at least 10 sections/vessel per condition were averaged together (Image J software).

“tiny-LNA-130: fully LNA-modified tiny LNA oligonucleotide 5′-ATTGCACT-3′ (SEQ ID NO: 3) complementary to the seed region of the miR-130/301 family (all LNA, backbone and methylation of C not given here)” was tested, and the number of cells (PASMCs [1]; counted each day during 3 days) was “greater decrease in the number of cells compared with anti-miR-130a”, the “BrdU incorporation (proliferation)” value (PASMCs [1]; exponentially growing, BrdU pulse 1 h) was “greater decrease in proliferation compared with anti-miR-130a” and the PCNA expression (PASMCs [1]; immunoblot 48 hours after transfection) was “more substantial decrease”. The “caspase 3/7 activity” value (PASMCs [2]; 24 h serum deprivation) was “no significant modulation”, the “caspase 3/7 activity” value (PASMCs [2]; serum-replete conditions) was “No significant modulation” and the “mature endothelin-1 in conditioned media” value (endothelin-1) was “decreased endothelin-1 expression to a greater extent than inhibition of miR-130a alone”. The “STAT3 phosphorylation in PASMCs” value (STAT3) was “abrogated”, the “collagen crosslinking of remodeled ECM” value (PAAFs; Picrosirius Red) was “reversed” and the “collagen, LOX, CTGF, and POU5F1/OCT4 in naïve cells plated on remodeled ECM” value (PAAFs; RT-qPCR) was “down-regulated”. For the same substance, the “miR-130/301 in naïve cells plated on remodeled ECM” value (PAAFs; RT-qPCR) was “down-regulated”.

From patent publication US20170226507A1, “COORDINATE CONTROL OF PATHOGENIC SIGNALING BY THE MIR-130/301 FAMILY IN PULMONARY HYPERTENSION AND FIBROPROLIFERATIVE DISEASES” (The Brigham and Women's Hospital, Inc., priority 2014, published 2017)
